Patent publication US20250025440A1, “COMPOSITIONS AND METHODS FOR MANAGEMENT OF HUMAN PAPILLOMA VIRUS-ASSOCIATED CANCERS” (LOMA LINDA UNIVERSITY, priority 2021, published 2025)

Assays:
[1] = system: HPV+ cell lines (SCC090, SCC104, SiHa); test: Caspase 3/7 activity Glo assay; type: cell-based; settings: 0.75 μM, 24 hours
Procedure: (§1) These findings were then confirmed by conducting a Caspase 3/7 activity Glo assay, which is a surrogate for apoptotic induction. Three HPV^+ cell lines (SCC090, SCC104, SiHa) and two HPV^− cell lines (SCC19, SCC84) were assessed for activity of caspases 3 and 7, and thus for apoptosis activity. […] FIG. 8B is a graphical representation of the Caspase 3/7 activity of gambogic acid in various HPV+ and HPV− cell lines. These cell lines were seeded in 96 well plates and treated with 0.75 uM GA-OH. Caspase 3/7 activity was measured after 24 hours. HPV^+ cell lines show high levels of Caspase 3/7 activity. […] FIG. 10 is a graphical representation of the cell viability as measured by MTT, when three HPV^+ cell lines (SCC090, SCC104, SiHa) and two HPV^− cell lines (SCC19, SCC84) were treated with gambogic acid.
(§2) Cells were seeded into white walled 96-well plates at 2×10^4 cells per well in 100 μL media and incubated overnight. GA-OH (0.75 μM) and vehicle were then added and incubated at 37° C. for 24 hr. Caspase 3/7 activity was measured using the Caspase 3/7 Glo kit (Promega, Fitchburg, WI, USA) following the manufacturer's instructions. Briefly, room temperature-equilibrated Caspase-Glo reagent was added (Promega) to each well. […] After a 2-hr incubation, luminescence was measured using a plate-reading fluorimeter (Flx800, Bio-Tek Instrument Co., Winooski, VT, USA). […]

[2] = system: HPV- cell lines (SCC19, SCC84); test: Caspase 3/7 activity Glo assay; type: cell-based; settings: 0.75 μM, 24 hours
Procedure: as §1, §2

## 30-hydroxygambogic acid [GA-OH]
[1]
  Caspase 3/7 activity (apoptosis induction): Significant apoptosis induction
[2]
  Caspase 3/7 activity (apoptosis induction): little to no apoptosis activity
